Patent US12325676B2, “Cationic lipid compound and composition for delivery of nucleic acids and use thereof” (Shenzhen Rhegen Biotechnology Co., Ltd., priority 2022, dated 2025)

Assays:
[1] = Encapsulation rate of mRNA-loaded lipid nanoparticles (Ribogreen kit); assay type: physicochemical
Description: (§1) Luciferase mRNA was diluted in 10-100 mM citrate buffer at pH 4.0; the lipid components (cationic lipids shown in the present disclosure: DSPC:cholesterol:PEG lipids (DMG-PEG2000)) were dissolved in ethanol at a molar ratio of 50:10:38.5:1.5.
(§2) 3 mL of a mRNA buffer and 1 mL of a lipid solution were loaded into two 5 mL syringes respectively, and the syringes were installed on a microfluidic syringe pump. Chips were connected to the syringes and syringe pump flow rate was set. Clicking the start button of the syringe pump caused injection into the chip at a flow rate ratio of 3:1. Under observation of the color of the product at the exit of the chip, after discarding the first 5 milky white droplets (about 100 μL), the back-end sample was collected into an EP tube. The collected product was placed in a dialysis bag and dialyzed for 6 h (MWCO: 100 KDa) in 10 mM PBS (pH 7.4) intervals. Subsequently, after being concentrated by ultrafiltration to the desired concentration, the lipid nanoparticles were filtered through a 0.22 μm sterile filter and then stored at 4° C.
(§3) Tests were performed to calculate the encapsulation rate of the products according to the instructions of Ribogreen kit. Particle size and polydispersity index (PDI) detection as well as zeta potential analysis was performed on a Malvern Zetasizer nano instrument using standard assays.

[2] = Particle size, PDI and zeta potential of mRNA-loaded lipid nanoparticles (Malvern Zetasizer nano); assay type: physicochemical
Description: as §1, §2, §3

BALB/c mice [3] = assay: In vivo expression of luciferase mRNA delivered by LNP, tail intravenous injection, small animal imaging; settings: Table 3, 5 μg mRNA, female BALB/c mice, DLin-MC3-DMA = 100
Description: LUC-mRNA-lipid nanoparticles containing 5 μg mRNA (see SEQ ID NO: 1 in the Patent Application Publication CN114380724A for the corresponding nucleotide sequence of LUC-mRNA) were injected via tail intravenous injection in 6-8 week old female BALB/c mice, prepared as in Example 19. 100 μg of D-Luciferin Potassium Salt was injected via tail intravenous injection into the mice at specific time points and assayed using the PerkinElmer Small Animal Imaging System. Fluc is commonly used in mammalian cell cultures to measure gene expression and cell viability, and it emits biological fluorescent light in the presence of the substrate […]. The basic characteristics of the mRNA used include ARCA cap structure, polyA tail length of 120 nt, and complete substitution of pseudouridine.
The effect of delivering luciferase mRNA using more cationic lipids were validated according to the methods of Example 20 and Example 21.

BALB/c mice [4] = assay: In vivo expression of luciferase mRNA delivered by LNP, lung nebulization; settings: LUC-mRNA LNP, 5 μg mRNA, compared with Lipid M and SM-102
Description: LUC-mRNA-lipid nanoparticles containing 5 μg mRNA were administrated via lung nebulization in 6-8 week old BALB/c mice, prepared as in Example 19. 100 μg of D-Luciferin Potassium Salt was injected via tail intravenous injection into the mice at specific time points and assayed using the PerkinElmer Small Animal Imaging System.

BALB/c mice [5] = assay: Novel coronavirus mRNA vaccine delivered by LNP, intramuscular immunization, binding antibody titer by ELISA; settings: mouse, in vivo
BALB/c mice [6] = assay: In vivo EPO protein expression after tail i.v. injection of EPO-mRNA LNP, serum ELISA; settings: 6 hours after tail i.v. injection of 20 μg EPO-mRNA-lipid nanoparticles, female Balb/c mice
Description: In the example, the effects of in vivo transfection of erythropoietin (EPO) by various cationic liposomes were compared. Nanoparticles were prepared in the same manner as in Example 20, and the nucleotide sequence corresponding to the EPO mRNA used is given in CN114380724B, SEQ ID NO:2. After preparation, 20 μg of EPO-mRNA-lipid nanoparticles were injected via tail intravenous injection in 6-8 week female Balb/c mice. 6 hours later the mice were subjected to blood sampling from the eye frame. After centrifugation to separate the serum, EPO protein expression was determined using ELISA. The basic characteristics of the mRNA used include ARCA cap structure, polyA tail length of 100-120 nt, and complete substitution of pseudouridine.

[7] = Encapsulation rate of mRNA-loaded lipid nanoparticles (Ribogreen kit); assay type: physicochemical; remark: listed apart in the source
[8] = Particle size, PDI and zeta potential of mRNA-loaded lipid nanoparticles (Malvern Zetasizer nano); assay type: physicochemical; remark: listed apart in the source
[9] = Table 1, Luciferase mRNA LNP, cationic lipid:DSPC:cholesterol:DMG-PEG2000 50:10:38.5:1.5 molar
[10] = Table 3 batch, luciferase mRNA LNP prepared as Example 20
[11] = Table 2 No. 1, Luc mRNA LNP, Compound 35/DMG-PEG2000/DSPC/cholesterol 55/2.5/22/20.5 molar, N/P 5
[12] = Table 2 No. 2, Luc mRNA LNP, Compound 35/DMG-PEG2000/DSPC/cholesterol 45/1.5/22/31.5 molar, N/P 10
[13] = Table 2 No. 3, Luc mRNA LNP, Compound 35/DMG-PEG2000/DSPC/cholesterol 45/2.5/8/44.5 molar, N/P 5
[14] = Table 2 No. 4, Luc mRNA LNP, Compound 35/DMG-PEG2000/DSPC/cholesterol 45/1.5/8/45.5 molar, N/P 10
[15] = Table 2 No. 5, Luc mRNA LNP, Compound 35/DMG-PEG2000/DSPC/cholesterol 50/1.5/15/33.5 molar, N/P 7.5
[16] = Table 2 No. 6, Luc mRNA LNP, Compound 35/DMG-PEG2000/DSPC/cholesterol 55/1.5/15/28.5 molar, N/P 10
[17] = Table 2 No. 7, Luc mRNA LNP, Compound 35/DMG-PEG2000/DOPE/cholesterol 55/2.5/22/20.5 molar, N/P 5
[18] = Table 2 No. 8, Luc mRNA LNP, Compound 35/DMG-PEG2000/DOPE/cholesterol 45/1.5/22/31.5 molar, N/P 10
[19] = Table 2 No. 9, Luc mRNA LNP, Compound 35/DMG-PEG2000/DOPE/cholesterol 45/2.5/8/44.5 molar, N/P 5
[20] = Table 2 No. 10, Luc mRNA LNP, Compound 35/DMG-PEG2000/DOPE/cholesterol 45/1.5/8/45.5 molar, N/P 10
[21] = Table 2 No. 11, Luc mRNA LNP, Compound 35/DMG-PEG2000/DOPE/cholesterol 50/1.5/15/33.5 molar, N/P 7.5
[22] = Table 2 No. 12, Luc mRNA LNP, Compound 35/DMG-PEG2000/DOPE/cholesterol 55/1.5/15/28.5 molar, N/P 10
[23] = Table 4 batch, EPO mRNA LNP prepared as Example 20

In the case of CCCCCCCCSCC(C)C(=O)OCCCCCN(CCO)CCCCCCCC(=O)OC(CCCCCCCC)CCCCCCCC (centres unmarked) [Compound 35], the “Encapsulation rate (%)” value [1, 9] was 90.4%, the “Encapsulation rate (%)” value [1, 10] was 96.2% and the PDI [2, 9] was 0.11. For the same molecule, the “Particle size (nm)” value [2, 9] was 104.5 nm, the “Zeta potential (mV)” value [2, 9] was −2.10 mV and the PDI [2, 10] was 0.14. For the same molecule, the “Particle size (nm)” value [2, 10] was 80.4 nm, the “relative fluorescence intensity (%)” value (BALB/c mice [3]) was 962 ± 78% and the “fluorescent levels of mRNA expression (FIG. 2)” value (BALB/c mice [4]) was “superior to Lipid M and SM-102”. The binding antibody titer (BALB/c mice [5]) was 1.4 million, the “EPO concentration” value (BALB/c mice [6]) was 5.73e+07 pg/mL and the “Encapsulation rate (%)” value [7, 11] was 85.78%. For the same molecule, the “Encapsulation rate (%)” value [7, 12] was 96.98%, the “Encapsulation rate (%)” value [7, 13] was 97.38% and the “Encapsulation rate (%)” value [7, 14] was 96.70%. For the same molecule, the “Encapsulation rate (%)” value [7, 15] was 96.10%, the “Encapsulation rate (%)” value [7, 16] was 94.46% and the “Encapsulation rate (%)” value [7, 17] was 90.26%. For the same molecule, the “Encapsulation rate (%)” value [7, 18] was 94.11%, the “Encapsulation rate (%)” value [7, 19] was 94.62% and the “Encapsulation rate (%)” value [7, 20] was 96.36%. For the same molecule, the “Encapsulation rate (%)” value [7, 21] was 92.54%, the “Encapsulation rate (%)” value [7, 22] was 96.16% and the “Encapsulation rate (%)” value [7, 23] was 96.1%. For the same molecule, the PDI [8, 11] was 0.193, the “Particle size (nm)” value [8, 11] was 100.5 nm and the PDI [8, 12] was 0.121. The “Particle size (nm)” value [8, 12] was 98.13 nm, the PDI [8, 13] was 0.138 and the “Particle size (nm)” value [8, 13] was 70.02 nm. The PDI [8, 14] was 0.121, the “Particle size (nm)” value [8, 14] was 98.19 nm and the PDI [8, 15] was 0.051. The “Particle size (nm)” value [8, 15] was 85.09 nm, the PDI [8, 16] was 0.122 and the “Particle size (nm)” value [8, 16] was 93.83 nm. The PDI [8, 17] was 0.169, the “Particle size (nm)” value [8, 17] was 145.0 nm and the PDI [8, 18] was 0.205. The “Particle size (nm)” value [8, 18] was 114.9 nm, the PDI [8, 19] was 0.173 and the “Particle size (nm)” value [8, 19] was 92.41 nm. The PDI [8, 20] was 0.233, the “Particle size (nm)” value [8, 20] was 113.7 nm and the PDI [8, 21] was 0.155. The “Particle size (nm)” value [8, 21] was 140.2 nm, the PDI [8, 22] was 0.190 and the “Particle size (nm)” value [8, 22] was 129.1 nm. The PDI [8, 23] was 0.12 and the “Particle size (nm)” value [8, 23] was 79.1 nm.
